Measurements as given in PubChem BioAssay (NCI).
“And” between values parts separate entries of the source, which are not always exact repeats. Identical values can stand only once.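 These data come from cells grown in 96-well plates and exposed to compound for 48 hours at five concentrations. The concentration for 50% growth inhibition is given as GI50. TGI: total growth inhibition.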

Tests used:
Assay in all cases: growth of human tumour cells (NCI), 48 h
RXF 393 renal = tested on: RXF 393 renal
NCI-H460 lung = tested on: NCI-H460 lung
HL-60(TB) leukemia = tested on: HL-60(TB) leukemia
HCC-2998 colon = tested on: HCC-2998 colon
CCRF-CEM leukemia = tested on: CCRF-CEM leukemia
786-0 renal = tested on: 786-0 renal
LOX IMVI melanoma = tested on: LOX IMVI melanoma
OVCAR-4 ovarian = tested on: OVCAR-4 ovarian
COLO 205 colon = tested on: COLO 205 colon
HOP-92 NSCLC = tested on: HOP-92 NSCLC

SMILES	GI50 (RXF 393 renal)	TGI (RXF 393 renal)	GI50 (NCI-H460 lung) [µM]	TGI (NCI-H460 lung)	GI50 (HL-60(TB) leukemia) [µM]	TGI (HL-60(TB) leukemia)	GI50 (HCC-2998 colon) [µM]	TGI (HCC-2998 colon) [µM]	GI50 (CCRF-CEM leukemia) [µM]	TGI (CCRF-CEM leukemia)	GI50 (786-0 renal)	TGI (786-0 renal)	GI50 (LOX IMVI melanoma) [µM]	TGI (LOX IMVI melanoma)	GI50 (OVCAR-4 ovarian)	TGI (OVCAR-4 ovarian)	GI50 (COLO 205 colon)	TGI (COLO 205 colon)	TGI (HOP-92 NSCLC)	GI50 (HOP-92 NSCLC)
COc1nc2c(cc1S(=O)(=O)c1ccccc1)CCc1c-2cnn1-c1ccccc1Cl	6.74 µM	> 100 µM	26.3	> 100 µM	4.98	> 100 µM	> 100	> 100	7.84	> 100 µM	7.28 µM	> 100 µM	> 100	> 100 µM	7.3 µM	> 100 µM	9.07 µM	> 100 µM		
COc1ccc(/C=C(/C(=O)O)c2cc(OC)c(OC)c(OC)c2)cc1				> 100 µM				> 100		> 100 µM		> 100 µM				> 100 µM		> 100 µM	> 100 µM	
COc1ccc(N=Cc2cc(OC)c(OC)c(OC)c2)cc1		> 100 µM		> 100 µM						> 100 µM		> 100 µM		> 100 µM		> 100 µM			> 100 µM	
COc1ccc(-n2cc(-c3ccc(OC)c(OC)c3)[nH]c2=S)cc1Cl			> 100	> 100 µM	> 100	> 100 µM	> 100	> 100	> 100	> 100 µM	52.3 µM	> 100 µM	> 100	> 100 µM	> 100 µM	> 100 µM	> 100 µM	> 100 µM	> 100 µM	37.3 µM
O=C1c2ccccc2-c2c1c1cc3c(cc1c(=O)n2CCCCl)OCO3			97.1	> 100 µM			24.4	> 100	66.1	> 100 µM	18.4 µM	45.7 µM	39.7	> 100 µM	> 100 µM	> 100 µM			> 100 µM	41.1 µM
COC(=O)c1c(OC)cccc1C(=O)O		> 100 µM		> 100 µM		> 100 µM		> 100		> 100 µM		> 100 µM				> 100 µM		> 100 µM		
O=[N+]([O-])c1ccc(NSc2ccccc2)cc1		40.9 µM		> 100 µM		47.5 µM		> 100		> 100 µM		30.8 µM		28 µM				> 100 µM	> 100 µM	
CN(C)CCNc1nc2ccccc2c2[nH]c3ccccc3c12	1.27 µM	5.41 µM	0.244	1.97 µM	1.55	3.77 µM	0.483	2.38	0.937	3.95 µM	0.396 µM	2.51 µM	0.301	1.11 µM			0.316 µM	1.09 µM	2.42 µM	0.464 µM
O=c1[nH]c(=O)n(C2CC(O)C(CO)O2)cc1C#Cc1c(F)c(F)c(F)c(F)c1F (centres undefined)				> 100 µM				> 100		> 100 µM		> 100 µM		> 100 µM		> 100 µM		> 100 µM		
CN1CCCNCCN(CCc2ccccn2)CCCN(C)CC1				> 100 µM		> 63.6 µM		> 100		> 60 µM		53.9 µM		> 79.1 µM		> 100 µM		> 62.8 µM	> 100 µM	
O=C(O)CCCc1ccc(N(CCCl)CCCl)cc1	9.53 µM and 57.7 µM	23 µM and 118 µM and 97.7 µM	2.13	44.5 µM and 228 µM	0.979	21.2 µM and 121 µM			0.881	34.2 µM and 170 µM and 18.6 µM	7.67 µM and 35.7 µM	28.4 µM and 181 µM and 133 µM		31.9 µM and 183 µM and 265 µM	24.7 µM and 185 µM	43.5 µM and 327 µM and 284 µM	22.6 µM and 201 µM	45.9 µM and 271 µM and 333 µM	46.6 µM and 199 µM and 175 µM	25.2 µM and 99.1 µM
O=C(O)/C=C/C(=O)Nc1ncn[nH]1		> 100 µM		> 100 µM				> 100				> 100 µM		> 100 µM		> 100 µM		> 100 µM	> 100 µM	
ClCc1ccccc1CSc1ncnc2nc[nH]c12	> 60 µM	> 60 µM	> 60	> 60 µM			> 60	> 60	> 60	> 60 µM	> 60 µM	> 60 µM	> 60	> 60 µM	> 60 µM	> 60 µM	> 60 µM	> 60 µM	> 60 µM	> 60 µM
O=C1CCC(NC(=O)c2ccccc2)C(=O)N1 (centres undefined)		> 100 µM		> 100 µM				> 100				> 100 µM		> 100 µM		> 100 µM		> 100 µM	> 100 µM	
CCCCn1/c(=N/C(=S)N(C)C)ss/c1=N\C(=S)N(C)C		> 100 µM		> 100 µM		> 100 µM		> 100		> 100 µM		> 100 µM		> 100 µM		> 100 µM			> 100 µM	
CCOC(=O)CCCO		> 100 µM		> 100 µM		> 100 µM		> 100		> 100 µM		> 100 µM		> 100 µM					> 100 µM	
CN(C)CCNC(=O)c1cccc2nc3c(Cl)cccc3nc12		16.6 µM				> 100 µM		43.1				> 49.1 µM		10.7 µM		27.6 µM		> 37.3 µM	> 24.2 µM	
CC1=C[C@@H]2Cc3occc3C(C)(C)[C@@H]2CC1		33.7 µM				39.1 µM		36.2		35.6 µM		34.1 µM		33.6 µM		84.4 µM		33.7 µM	38.9 µM	
Cc1cc(C)nc(NS(=O)(=O)c2ccc(NC(=O)c3cccc4c(=O)c5ccccc5[nH]c34)cc2)n1				36.1 µM		47.7 µM		31.7		> 100 µM		36.8 µM		31.8 µM		43.3 µM		34.5 µM	44 µM	
